Experimental data: article PMC2829052, “Mycobacterium tuberculosis Peptides Presented by HLA-E Molecules Are Targets for Human CD8^+ T-Cells with Cytotoxic as well as Regulatory Activity” (PLoS Pathogens, 2010)
Where no end group is shown, it is not given here.

Each molecule was assayed on CD3+CD8+CD56- T-cells (assay: not given). Conditions: 10 PPD responders; recognition = >10% proliferating CD3+CD8+CD56- T-cells.
Assay type: cell-based, human
In the case of RLASCRDAL-OH [Peptide 61, RLASCRDAL], the “number of PPD responding adult donors recognizing the peptide” value is reported as “not by any”.

Same assay, conditions: donor 2; PBMCs, peptide 10 µg/ml (PHA 2 µg/ml, PPD 5 µg/ml), IL-7, IL-2 day 7, CFSE read day 10
FLLPRGLAI-OH [Peptide 54] was tested, and the “percentage of proliferation within CD3+CD8+CD56- cells” value (from here on “percentage”) was 15.8%.

Same assay, conditions: donor 4; PBMCs, peptide 10 µg/ml (PHA 2 µg/ml, PPD 5 µg/ml), IL-7, IL-2 day 7, CFSE read day 10
In the case of FLLPRGLAI-OH [Peptide 54], the “percentage” value is reported as 0.2%.

Same assay, conditions: donor 6; PBMCs, peptide 10 µg/ml (PHA 2 µg/ml, PPD 5 µg/ml), IL-7, IL-2 day 7, CFSE read day 10
With FLLPRGLAI-OH [Peptide 54] the “percentage” value was 1.6%.

What follows are molecules tested on CD8+ T-cells (assay: not given). Conditions: not given.
Assay type: cell-based, human
RLASCRDAL-OH [Peptide 61, RLASCRDAL] was tested, and the “number of BCG vaccinees recognizing the peptide” value was 2.

Each molecule was assayed against T1, recombinant human HLA-E*0103 (Homo sapiens, UniProt P13747) (assay: biochemical). Conditions: not given.
T1 construct: made in house; host or cells: E. coli
Assay type: binding
Molecule `CSCC[C@H](NC(=O)[C@@H](N)CCC(N)=O)C(=O)N[C@@H](CCCCN)C(=O)N[C@@H](Cc1ccccc1)C(=O)N[C@@H](Cc1ccc(O)cc1)C(=O)N[C@@H](C)C(=O)N[C@H](C(=O)N[C@@H](C)C(=O)N[C@@H](CC(C)C)C(=O)O)C(C)C` [Peptide 5, QMKFYAVAL] has an IC50 of 1.5 µM. Work on EMLTSRGLL-OH [Peptide 37] yielded an IC50 of over 50 µM. FMTRLGPLL [Peptide 60] gave an IC50 of 37 µM. Molecule IEPRGAQAL-OH [Peptide 57, IEPRGAQAL] has an IC50 of over 50 µM. Work on LMHYRGELL [Peptide 29] yielded an IC50 of 20 µM. In the case of LPAERAHEL-OH [Peptide 31], the IC50 is reported as over 50 µM. Work on REPRRGPRL-OH [Peptide 51] yielded an IC50 of over 50 µM. In the case of RMPPLGHEL [Peptide 62], the IC50 is reported as 4 µM. Molecule RPANLAFFL [Peptide 59] has an IC50 of 1.3 µM. VLLPGLPYL [Peptide 50] was tested, and the IC50 was 8 µM. VSNLRTGKL-OH [Peptide 27] showed an IC50 of over 50 µM. WLPPLLTNL [Peptide 69] showed an IC50 of 39 µM. Molecule WMCDRAVDL-OH [Peptide 9] has an IC50 of over 50 µM.

Same assay, conditions: concentration of peptide reducing fluorescence of standard peptide VMAPC(Fl)TLLL (100 fmol) by 50%; […]; gel filtration HPLC, emission 528 nm; at least two separate experiments; read-out: Binding
`CC[C@H](C)[C@H](N)C(=O)N[C@@H](CCSC)C(=O)N[C@@H](C)C(=O)N[C@@H](CC(N)=O)C(=O)N[C@@H](CCCNC(=N)N)C(=O)N[C@@H](C)C(=O)N[C@@H](CCC(N)=O)C(=O)N[C@H](C(=O)N[C@@H](CC(C)C)C(=O)O)C(C)C` [Peptide 3] was tested, and the IC50 was 0.4 µM. `CC(C)C[C@H](NC(=O)[C@H](CC(C)C)NC(=O)[C@@H]1CCCN1C(=O)[C@H](C)NC(=O)[C@H](CCCCN)NC(=O)[C@H](C)NC(=O)[C@@H]1CCCN1C(=O)[C@H](CC(C)C)NC(=O)[C@@H](N)CCCNC(=N)N)C(=O)O` [Peptide 44] showed an IC50 of 0.03 µM. Work on `CC[C@H](C)[C@H](N)C(=O)N[C@@H](CC(C)C)C(=O)N1CCC[C@H]1C(=O)N[C@@H](CO)C(=O)N[C@@H](CC(=O)O)C(=O)N[C@@H](C)C(=O)N1CCC[C@H]1C(=O)N[C@H](C(=O)N[C@@H](CC(C)C)C(=O)O)C(C)C` [Peptide 49] yielded an IC50 of 0.2 µM. Molecule AMAGSIDLL [Peptide 36] has an IC50 of 34 µM. Work on DLPSRLGKI-OH [Peptide 58] yielded an IC50 of over 50 µM. DMLGRAGGL-OH [Peptide 12] showed an IC50 of over 50 µM. With EMGRAPLDL-OH [Peptide 43] the IC50 was over 50 µM. With EMVLRADQL-OH [Peptide 11] the IC50 was over 50 µM. FLAADALVL-OH [Peptide 15] gave an IC50 of over 50 µM. Work on FLLPRGLAI-OH [Peptide 54] yielded an IC50 of over 50 µM. In the case of GLDARAYRL-OH [Peptide 19], the IC50 is reported as over 50 µM. GLDSRAYRL-OH [Peptide 18] showed an IC50 of over 50 µM. GMGMVGTAL-OH [Peptide 35, GMGMVGTAL] showed an IC50 of over 50 µM. GMNVTAPAL [Peptide 7, GMNVTAPAL] was tested, and the IC50 was 8 µM. KMNAKAATL [Peptide 4] showed an IC50 of 15 µM. With LMGAEADAL-OH [Peptide 17, LMGAEADAL] the IC50 was over 50 µM. For LMGALAVVL [Peptide 26], the IC50 was 21 µM. PMADIAAAL-OH [Peptide 23, PMADIAAAL] was tested, and the IC50 was over 50 µM. For PMAPLAPLL [Peptide 20], the IC50 was 3 µM. Molecule PMKRTALAL [Peptide 6, PMKRTALAL] has an IC50 of 18 µM. QLAPGLQLI-OH [Peptide 46] gave an IC50 of over 50 µM. For RLANLLPLI [Peptide 48], the IC50 was 32 µM. In the case of RLGRLLNRI-OH [Peptide 56], the IC50 is reported as over 50 µM. Work on RLRPELAGL [Peptide 52] yielded an IC50 of 46 µM. In the case of RMAATAQVL [Peptide 14], the IC50 is reported as 2 µM. In the case of RSCPRLTIL-OH [Peptide 64], the IC50 is reported as over 50 µM. With SMADRAENL-OH [Peptide 1] the IC50 was over 50 µM. SMAGRAGQL-OH [Peptide 2] showed an IC50 of over 50 µM. In the case of TMITFRLRL [Peptide 33], the IC50 is reported as 2.4 µM. Molecule TSADRAVVL [Peptide 28] has an IC50 of 39 µM. In the case of VEAFRTRPL-OH [Peptide 16], the IC50 is reported as over 50 µM. For VLPACLGIL [Peptide 67], the IC50 was 12 µM. For VLRPGGHFL [Peptide 68], the IC50 was 1.8 µM. Work on VMAPDAVRI [Peptide 63] yielded an IC50 of 31 µM. For VMATRRNVL [Peptide 55], the IC50 was 16 µM. With VMMSEIAGL [Peptide 32] the IC50 was 13 µM. Molecule VMTTVLATL [Peptide 34] has an IC50 of 1.8 µM.

What follows are molecules tested on TGFβ1 (assay: not given). Conditions: Rp15 1-1 clone without Tregs; data not shown.
Assay type: cell-based, human
In the case of “LAP: recombinant latency associated peptide, reverts active TGFβ to a latent, inactive form (R&D systems)”, the “increased proliferation on addition of LAP to the indicator clone only” value is reported as at most 20%.

Same assay, conditions: Tregs + Rp15 1-1, 0.5 µg/ml cognate peptide, HLA-DR3+ APCs, 3 days
In the case of “LAP: recombinant latency associated peptide, reverts active TGFβ to a latent, inactive form (R&D systems)”, the “increase of proliferation on addition of LAP to co-cultures of Tregs and indicator clones” value is reported as “over 40%”.
